{"source": "patent US20170333388A1", "about": "“Therapeutic compound and its application in repairing diabetes-related cardiac injuries” (Numen Biotech Co., Ltd, priority 2016, published 2017)", "type_in_all_cases": "cell-based, rat", "key": {"[1]": {"tested_on": "adipose-derived stem cells (ADSC)", "assay": "stem cell proliferation (colony) experiment in high glucose medium", "conditions": "high glucose destroyed stem cells (33 mM glucose)", "protocol": "The adipose-derived stem cells were taken out from the abdominal adipose tissue of 8-month-old Wistar male rats via surgery. After cutting the adipose tissues into suitable sizes, the adipose tissues were washed by antibiotic containing saline. The washed adipose tissues were placed into a Type II collagenase (0.01%) containing saline, and were stirred and heated under 37° C. water bath for 1 hour. Then the adipose tissues were centrifuged by 3000 rpm under room temperature for 10 minute, the precipitants were extracted for cell culture in the culture dish.\nIn the aspect of stem cell proliferation experiment, the more the number of stem cell colonies in different experimental conditions represents for the better growth experiment condition for stem cells. The stem cells were divided into 5 different groups, which were: Group 1: stem cell group, Group 2: high glucose destroyed stem cell group, Group 3: EGCG (2.5 μM in concentration) precondition high glucose destroyed stem cell group, Group 4: EGCG (5 μM in concentration) precondition high glucose destroyed stem cell group, Group 5: EGCG (10 μM in concentration) precondition high glucose destroyed stem cell group. […] In comparison with the normal stem cell group (Group 1), the distribution of the stem cells colonies cultured in high glucose medium was inhibited (Group 1>Group 2, p<0.001). In contrast, in comparison to the high glucose destroyed stem cells, the stem cell colonies were recovered under different EGCG concentration precondition (Group 2<Group 3, p<0.05; Group 2<Group 4, p<0.05; Group 2<Group 5, p<0.01). Then the migration ability of stem cells under different experiment conditions was tested. The more numbers of stem cells represent the stem cells have stronger migration ability under this experiment condition."}, "[2]": {"tested_on": "adipose-derived stem cells (ADSC)", "assay": "Western blot of protein expression in ADSC preconditioned with EGCG", "protocol": "After the drug treatment, the culture medium was removed from the cells and rinsed with PBS buffer for three times; then 1 mL PBS was used to scrape the cells from the dish and the cells containing solution was placed in a centrifuge tube, and the solution was centrifuged by 12,000 rpm for 10 minutes, then the supernatant was removed, and the lysis buffer (50 mM Tris pH 7.5,0.5 M NaCl, 1.0 mM EDTA pH 7.5,1 mM BME, 1% NP40,10% glycerol, protease inhibitor cocktail table) was added and mixed. The mixture was placed on ice and shock once every 5 minutes for 30 minutes, and then the mixture was centrifuged at 12,000 g in 4° C. for 10 minutes, the upper layer was placed in a new tube to measure the protein concentration.\nAfter the drug treatment, the culture medium was removed from the cells and rinsed with PBS buffer for three times; then 1 mL PBS was used to scrape the cells from the dish and the cells containing solution was placed in a centrifuge tube, and the solution was centrifuged by 12,000 rpm for 10 minutes then the supernatant was removed and extraction buffer (50 mM Tris pH 7.5-0.5 M NaCl-1.0 mM EDTA pH 7.5-10% glycerol-protease inhibitor cocktail table) was added into the mill tube, then grinded on ice. And the homogenate was then placed in a new centrifuge tube to centrifuge at 4° C. by 12,000 rpm for 10 minutes, the upper layer was placed in a new centrifuge tube for measuring the protein concentration.\n[…] protein samples were added into a PBS solution, and 5× loading dye was added then mixed evenly and boiled for 10 minutes, then analyze by SDS-polyacrylamide slab gel electrophoresis. The upper layer of the SDS-polyacrylamide gel electrophoresis was 3.75% Stacking gel, and the lower layer was 5% and 12% Separating gel. The plastic plates was fixed to the electrophoresis apparatus and the electrophoresis buffer was filled into the electrophoresis tank, and then the treated protein sample was added into the U-shaped groove formed on a plastic plate, and undergo electrophoresis with 75 volts. […]"}, "[3]": {"tested_on": "adipose-derived stem cells (ADSC)", "assay": "transwell migration assay of ADSC in high glucose medium", "protocol": "The stem cells were divided into five different groups, which were: Group 1: stem cell group, Group 2: high glucose destroyed stem cell group, Group 3: EGCG (2.5 μM in concentration) precondition high glucose destroyed stem cell group, Group 4: EGCG (5 μM in concentration) precondition high glucose destroyed stem cell group, Group 5: EGCG (10 μM in concentration) precondition high glucose destroyed stem cell group. […] The migration ability of the five groups was: 63±10, 36±7, 55±5, 84±6 and 144±4, respectively. In comparison with the normal stem cell group (Group 1), the migration ability of the stem cells cultured in high glucose medium was decreased (Group 1>Group 2, p<0.05). In contrast, in comparison to the high glucose destroyed stem cells, the migration ability of stem cells was recovered under different EGCG concentration precondition (Group 2<Group 3, p<0.05; Group 2<Group 4, p<0.001; Group 2<Group 5, p<0.001). Then the migration ability of stem cells under different experiment conditions was tested. The more numbers of stem cells represents the stem cells have stronger migration ability under this experiment condition.\nDuring the analysis of protein expression level, the EGCG induced expression level of CXCR4 and p-Akt increase would be eliminated by siRNA CXCR4. […] The stem cells were divided into six groups in this test, which were: Group 1: stem cell group, Group 2: high glucose destroyed stem cell group, Group 3: EGCG (10 μM in concentration) precondition high glucose destroyed stem cell group, Group 4: siRNA CXCR4 (3 nM) was added in Group 3, Group 5: CXCR4 siRNA (10 nM) was added into Group 4. The numbers of migrated stem cells were 288±25, 36±7, 159±17, 84±6, 41±8 and 40±2 respectively."}, "[4]": {"conditions": "EGCG precondition at different concentrations vs high glucose destroyed stem cells"}}}
{"smiles": "O=C(O[C@@H]1Cc2c(O)cc(O)cc2O[C@@H]1c1cc(O)c(O)c(O)c1)c1cc(O)c(O)c(O)c1", "note": "[EGCG, epigallocatechin gallate]", "values": [{"measurement": "stem cell colonies", "setting": "[1]; EGCG 2.5 μM precondition", "value": "152±17"}, {"measurement": "stem cell colonies", "setting": "[1]; EGCG 5 μM precondition", "value": "178±22"}, {"measurement": "stem cell colonies", "setting": "[1]; EGCG 10 μM precondition", "value": "226±31"}, {"measurement": "apoptosis protein cytochrome-C expression level", "setting": "[2]; [4]", "value": "decreased"}, {"measurement": "migration protein (CXCR4) expression level", "setting": "[2]; [4]", "value": "recovered"}, {"measurement": "EGCG induced increase of CXCR4 and p-Akt expression level", "setting": "[2]; FIG. 6, in the presence of siRNA CXCR4", "value": "eliminated"}, {"measurement": "migration ability (numbers of migrated stem cells)", "setting": "[3]; FIG. 4, EGCG 2.5 μM precondition", "value": "55±5"}, {"measurement": "migration ability (numbers of migrated stem cells)", "setting": "[3]; FIG. 4, EGCG 5 μM precondition", "value": "84±6"}, {"measurement": "migration ability (numbers of migrated stem cells)", "setting": "[3]; FIG. 4, EGCG 10 μM precondition", "value": "144±4"}, {"measurement": "numbers of migrated stem cells", "setting": "[3]; FIG. 7, Group 3: EGCG 10 μM precondition", "value": "159±17"}, {"measurement": "numbers of migrated stem cells", "setting": "[3]; FIG. 7, Group 4: EGCG 10 μM precondition, siRNA CXCR4 3 nM added", "value": "84±6"}, {"measurement": "numbers of migrated stem cells", "setting": "[3]; FIG. 7, Group 5: EGCG 10 μM precondition, CXCR4 siRNA 10 nM added", "value": "41±8"}]}
